Converted amounts (≈) assume the structure as drawn.
Columns and labels:
[1] = Solubility of the API in various solvent systems (saturation solubility studies); assay type: physicochemical
Description: In developing the parenteral formulation of mirabegron, the present inventors conducted extensive research and experiments. The solubility of API was studied in various solvent systems. For formulating immediate release injectable formulations, the solubility of the drug plays an important role as the final parenteral formulation has to be essentially a clear solution. […] Further, the inventors of the present invention were able to achieve maximum API solubility based on series of saturation solubility studies performed. […] The assessment of the successful development and stability of the solutions has been made on basis of the appearance of the solutions, the pH-value, osmolality, impurities content, and stability. The prepared formulations were found acceptable on these parameters.

[2] = system: biomarkers such as uncoupling protein 1 (UCP1), PGC-1α in iWAT (Inguinal white adipose tissue); assay: Biomarker expression in iWAT after localized microinjections of the injection formulations; assay type: in vivo, C57BL/6 mice; details: dose up to 1 mg per animal; single and multiple localized microinjections in iWAT; indicates marked thermogenesis
Experimental: In certain non-limiting embodiments, the injection formulations were evaluated to determine the effect of mirabegron in animals (such as C57BL/6 mice etc.). The purpose of this study was to determine the effect of mirabegron on modulation in biomarkers such as uncoupling protein 1 (UCP1), Peroxisome proliferator-activated receptor-gamma coactivator-1alpha (PGC-1α) and others in this category to check pharmacokinetics after single and multiple localized microinjections in iWAT (Inguinal white adipose tissue). […]

[3] = background statement; cited from earlier work

- Solubility of API in Acetate buffer ([1]; Acetate buffer having pH 4.5, saturation solubility studies): maximum solubility
- Solubility of API when pH is adjusted to the acidic side ([1]; pH close to 3.0): soluble
- solubility ([1]; solution with pH adjusted to the acidic side, pH 3, aqueous buffer, after pH adjusted to the acidic side): ≤ 100000 µg/mL
- Solubility of API in water ([1]; water): practically insoluble
- solubility ([1]; water, starting value, before pH adjustment): ~100 µg/mL (≈ 252 µM)
Structure (SMILES): Nc1nc(CC(=O)Nc2ccc(CCNC[C@H](O)c3ccccc3)cc2)cs1 [Mirabegron, (R)-2-(2-aminothiazol-4-yl)-4′-{2-[(2-hydroxy-2 phenylethyl)amino]ethyl}acetanilide]
- Drug solubility with co-solvent ([1]; co-solvent (such as propylene glycol) with or without heating): failed to achieve desired drug solubility
- Expression of biomarkers in iWAT [2]: statistically significant increase
- Solubility in water [3]: practically insoluble

From patent US11311518B1, “Parenteral dosage form of β3 adrenoreceptor agonists” (Jubilant Pharma Holdings Inc., priority 2021, dated 2022)
